The target of one assay is T1, SHP2 (full length) (Homo sapiens, UniProt Q06124).
T1 construct: SHP2 (full length, diluted to 100 pM final concentration in reaction buffer, BPS bioscience, US); purchased BPS bioscience, US
T1 sequence (Q06124 1-593): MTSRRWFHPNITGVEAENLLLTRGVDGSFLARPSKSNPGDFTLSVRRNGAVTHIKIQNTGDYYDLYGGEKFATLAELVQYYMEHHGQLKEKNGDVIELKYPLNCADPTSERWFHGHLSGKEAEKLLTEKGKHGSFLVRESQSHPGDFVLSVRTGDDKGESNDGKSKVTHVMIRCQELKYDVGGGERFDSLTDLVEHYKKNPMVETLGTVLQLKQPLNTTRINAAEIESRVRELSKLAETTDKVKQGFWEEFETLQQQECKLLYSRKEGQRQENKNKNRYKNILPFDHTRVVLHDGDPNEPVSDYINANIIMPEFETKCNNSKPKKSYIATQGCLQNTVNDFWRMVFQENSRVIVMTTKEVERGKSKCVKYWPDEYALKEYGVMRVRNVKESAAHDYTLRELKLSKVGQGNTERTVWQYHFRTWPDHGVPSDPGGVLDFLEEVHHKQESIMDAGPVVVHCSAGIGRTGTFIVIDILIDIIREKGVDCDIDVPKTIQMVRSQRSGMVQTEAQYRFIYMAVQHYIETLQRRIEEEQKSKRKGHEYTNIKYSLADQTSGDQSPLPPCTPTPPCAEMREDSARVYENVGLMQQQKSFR
The assay is described as follows: Phosphatase assay (PTPase assay) with DiFMUP substrate. In kind it is biochemical. Particulars: SHP2 activated with SHP2 activating peptide, DiFMUP 80 μM, 2 hours, fluorescence.

Assay [1] concerns phospho-ERK in MIA PaCa2 or H358 cells. The experiment in a line: Phospho-ERK assay (AlphaLisa). In kind it is cell-based. (Alpha assays give light when donor and acceptor beads are brought close together.)
Where [2] appears, read: 1.5 h, MIA PaCa2 or H358 cells, compound incubated 1.5 hours, read-out: IC50 (p-ERK).

Like-named read-outs stand apart in the source and are kept apart here.

Our source for the IC50 values is patent US12029739B2, “SHP2 inhibitor and use thereof” (KANAPH THERAPEUTICS INC., priority 2021, dated 2024).

On to `C[C@@H]1OCC2(CCN(c3cnc(Sc4ccc5nc(Cc6ccccc6)[nH]c5c4Cl)cn3)CC2)[C@@H]1N` [Example 50, (3S,4S)-8-(5-((2-benzyl-7-chloro-1H-benzo[d]imidazol-6-yl)thio)pyrazin-2-yl)-3-methyl-2-oxa-8-azaspiro[4.5]decan-4-amine], for which the IC50 is 3 to 100 nM on SHP2 (full length) (read-out: IC50 (PTPase aS say)) and 45 to 1500 nM in assay [1] (setting [2]).
The matching figures for `Cn1c(N2CCOC(CN)C2)nc(N)c(Sc2cccc(Cl)c2Cl)c1=O` (stereo not drawn) [Example 198, 6-amino-2-(2-(aminomethyl)morpholino)-5-((2,3-dichlorophenyl)thio)-3-methylpyrimidin-4(3H)-one]: over 100 nM and over 1500 nM.
On the same counts, the results for `COCCn1cnc2ccc(Sc3cnc(N4CCC5(CC4)CO[C@@H](C)[C@H]5N)c(CO)n3)c(Cl)c2c1=O` [Example 153, 6-[5-[(3S,4S)-4-amino-3-methyl-2-oxa-8-azaspiro[4.5]decan-8-yl]-6-(hydroxymethyl)pyrazin-2-yl]sulfanyl-5-chloro-3-(2-methoxyethyl)quinazolin-4-one] are under 3 nM and under 45 nM.
For `C[C@@H]1OCC2(CCN(c3cnc(Sc4ccc5ncn(Cc6cccc(F)c6)c(=O)c5c4Cl)cn3)CC2)[C@@H]1N` [Example 33, 6-((5-((3S,4S)-4-amino-3-methyl-2-oxa-8-azaspiro[4.5]decan-8-yl)pyrazin-2-yl)thio)-5-chloro-3-(3-fluorobenzyl)quinazolin-4(3H)-one], the concentration for half-maximal inhibition (IC50) is under 3 nM on SHP2 (full length) (read-out: IC50 (PTPase aS say)) and 45 to 1500 nM in assay [1] (setting [2]).
On the same counts, the results for `COCCn1cnc2ccc(Sc3cnc(N4CCC5(CC4)Cc4ncsc4[C@H]5N)cn3)c(Cl)c2c1=O` [Example 144, 6-[5-[(6S)-6-aminospiro[4,6-dihydrocyclopenta[d]thiazole-5,4′-piperidin]-1′-yl]pyrazin-2-yl]sulfanyl-5-chloro-3-(2-methoxyethyl)quinazolin-4-one] are under 3 nM and under 45 nM.
The matching figures for `C[C@@H]1OCC2(CCN(c3cnc(Sc4ccc5ncn(CC6CCOC6)c(=O)c5c4Cl)cn3)CC2)[C@@H]1N` (stereo partly drawn) [Example 61, 6-((5-((3S,4S)-4-amino-3-methyl-2-oxa-8-azaspiro[4.5]decan-8-yl)pyrazin-2-yl)thio)-5-chloro-3-((tetrahydrofuran-3-yl)methyl)quinazolin-4(3H)-one]: under 3 nM and under 45 nM.
The matching figures for `COCCn1cnc2ccc(Sc3cnc(N4CCC5(CC4)Cc4scnc4[C@@H]5N)cn3)c(Cl)c2c1=O` [Example 150, 6-[5-[(4R)-4-aminospiro[4,6-dihydrocyclopenta[d]thiazole-5,4′-piperidin]-1′-yl]pyrazin-2-yl]sulfanyl-5-chloro-3-(2-methoxyethyl)quinazolin-4-one]: under 3 nM and 45 to 1500 nM.
As for `C[C@@H]1OCC2(CCN(c3cnc(Sc4ccc5ncn(CC6(F)COC6)c(=O)c5c4Cl)cn3)CC2)[C@@H]1N` [Example 80, 6-((5-((3S,4S)-4-amino-3-methyl-2-oxa-8-azaspiro[4.5]decan-8-yl)pyrazin-2-yl)thio)-5-chloro-3-((3-fluorooxetan-3-yl)methyl)quinazolin-4(3H)-one], the IC50 is under 3 nM on SHP2 (full length) (read-out: IC50 (PTPase aS say)) and under 45 nM in assay [1] (setting [2]).
The matching figures for `CC1(N)CCN(c2cnc(Sc3ccc4ncn(Cc5cccc([N+](=O)[O-])c5)c(=O)c4c3Cl)cn2)CC1` [Example 14, 6-((5-(4-amino-4-methylpiperidin-1-yl)pyrazin-2-yl)thio)-5-chloro-3-(3-nitrobenzyl)quinazolin-4(3H)-one]: 3 to 100 nM and 45 to 1500 nM.
On the same counts, the results for `Cn1c(N2CCC(C)(N)CC2)nc(N)c(Sc2cccc(C(=O)O)c2Cl)c1=O` [Example 27, 3-((4-amino-2-(4-amino-4-methylpiperidin-1-yl)-1-methyl-6-oxo-1,6-dihydropyrimidin-5-yl)thio)-2-chlorobenzoic acid] are over 100 nM and over 1500 nM.
`CC1(CN)CCN(c2cnc(Sc3cccc(S(=O)(=O)F)c3Cl)cn2)CC1` [Example 6, 3-((5-(4-(aminomethyl)-4-methylpiperidin-1-yl)pyrazin-2-yl)thio)-2-chlorobenzenesulfonyl fluoride]: the IC50 against SHP2 (full length) (IC50 (PTPase aS say, nM)) is 3 to 100 nM; in assay [1] (1.5 h, read-out: IC50 (p-ERK, nM)), 45 to 1500 nM.
Consider `C[C@@H]1OCC2(CCN(c3cnc(Sc4ccc5ncn(CC(C)(C)O)c(=O)c5c4Cl)cn3)CC2)[C@@H]1N` [Example 81, 6-((5-((3S,4S)-4-amino-3-methyl-2-oxa-8-azaspiro[4.5]decan-8-yl)pyrazin-2-yl)thio)-5-chloro-3-(2-hydroxy-2-methylpropyl)quinazolin-4(3H)-one], for which the IC50 on SHP2 (full length) (read-out: IC50 (PTPase aS say)) was under 3 nM; in assay [1] (setting [2]) it was under 45 nM.
On the same counts, the results for `N[C@@H]1c2cccnc2CC12CCN(c1cnc(Sc3ccc4ncn(Cc5ccoc5)c(=O)c4c3Cl)cn1)CC2` [Example 138] are under 3 nM and under 45 nM.
For the compound `C[C@@H]1OCC2(CCN(c3cnc(Sc4ccc5ncn(Cc6cccnc6)c(=O)c5c4Cl)cn3)CC2)[C@@H]1N` [Example 20, 6-((5-((3S,4S)-4-amino-3-methyl-2-oxa-8-azospiro[4.5]decan-8-yl)pyrazin-2-yl)thio)-5-chloro-3-(pyridin-3-ylmethyl)quinazolin-4H-one], the IC50 was under 3 nM on SHP2 (full length) (read-out: IC50 (PTPase aS say)) and under 45 nM in assay [1] (setting [2]).
On the same counts, the results for `Cn1c(N2CCN(CC(N)c3ccccc3)CC2)nc(N)c(Sc2cccc(Cl)c2Cl)c1=O` (stereo not drawn) [Example 190, 6-amino-2-(4-(2-amino-2-phenylethyl)piperazin-1-yl)-5-((2,3-dichlorophenyl)thio)-3-methylpyrimidin-4(3H)-one] are over 100 nM and over 1500 nM.
On the same counts, the results for `C[C@@H]1OCC2(CCN(c3cnc(Sc4ccc5ncn(CC(=O)c6cccnc6)c(=O)c5c4Cl)cn3)CC2)[C@@H]1N` [Example 90, 6-((5-((3S,4S)-4-amino-3-methyl-2-oxa-8-azaspiro[4.5]decan-8-yl)pyrazin-2-yl)thio)-5-chloro-3-(2-oxo-2-(pyridin-3-yl]ethyl)quinazolin-4(3H)-one] are under 3 nM and under 45 nM.
On the same counts, the results for `C[C@@H]1OCC2(CCN(c3cnc(Sc4ccc5ncn(Cc6cccc(C(F)(F)F)c6)c(=O)c5c4Cl)cn3)CC2)[C@@H]1N` [Example 34] are 3 to 100 nM and 45 to 1500 nM.
For `CC(C)(O)Cn1cnc2ccc(Sc3cnc(N4CCC5(CC4)Cc4ncccc4[C@@H]5N)cn3)c(Cl)c2c1=O` [Example 159, 6-[5-[(5R)-5-aminospiro[5,7-dihydrocyclopenta[b]pyridine-6,4′-piperidin]-1′-yl]pyrazin-2-yl]sulfanyl-5-chloro-3-(2-hydroxy-2-methylpropyl)quinazolin-4-one], the values for the IC50 (at SHP2 (full length) (read-out: IC50 (PTPase aS say)); in assay [1] (setting [2])) were under 3 nM and under 45 nM, respectively.
The matching figures for `N[C@@H]1c2cccnc2CC12CCN(c1cnc(Sc3ccc4ncn(Cc5ccccc5)c(=O)c4c3Cl)cn1)CC2` [Example 102, (S)-6-((5-(5-amino-5,7-dihydrospiro[yclopenta[b]pyridine-6,4′-piperidin]-1′-yl)pyrazin-2-yl)thio)-3-benzyl-5-chloroquinazolin-4(3H)-one]: under 3 nM and under 45 nM.
On the same counts, the results for `C[C@@H]1OCC2(CCN(c3cnc(Sc4ccc5ncn(CC6CCCO6)c(=O)c5c4Cl)cn3)CC2)[C@@H]1N` (stereo partly drawn) [Example 62, 6-((5-((3S,4S)-4-amino-3-methyl-2-oxa-8-azaspiro[4.5]decan-8-yl)pyrazin-2-yl)thio)-5-chloro-3-((tetrahydrofuran-2-yl)methyl)quinazolin-4(3H)-one] are under 3 nM and under 45 nM.
`C[C@@H]1OCC2(CCN(c3cnc(Sc4cccc(S(N)(=O)=O)c4Cl)c(N)n3)CC2)[C@@H]1N` [Example 12, 3-((3-amino-5-((3S,4S)-4-amino-3-methyl-2-oxa-8-azaspiro[4.5]decan-8-yl)pyrazin-2-yl)thio)-2-chlorobenzenesulfonamide]: the IC50 on SHP2 (full length) (read-out: IC50 (PTPase aS say)) lay in the range of 3 to 100 nM; in assay [1] (MIA PaCa2 or H358 cells, compound incubated 1.5 hours, read-out: IC50 (p-ERK)), 45 to 1500 nM.
For the compound `Cn1c(N2CCN(CCN)CC2)nc(N)c(-c2cccc(Cl)c2Cl)c1=O` [Example 195], the values for the concentration for half-maximal inhibition (IC50) (on SHP2 (full length) (read-out: IC50 (PTPase aS say)); in assay [1] (setting [2])) were over 100 nM and over 1500 nM, respectively.
Regarding `Cc1nc2ccc(Sc3cnc(N4CCC(C)(CN)CC4)cn3)c(Cl)c2c(=O)[nH]1` [Example 22, 6-((5-(4-(aminomethyl)-4-methylpiperidin-1-yl)pyrazin-2-yl)thio)-5-chloro-2-methylquinazolin-4(3H)-one], the IC50 on SHP2 (full length) (read-out: IC50 (PTPase aS say)) was in the range of 3 to 100 nM; in assay [1] (setting [2]) it was 45 to 1500 nM.
On the same counts, the results for `C[C@@H]1OCC2(CCN(c3cnc(Sc4ccc5ncn(Cc6ccc7cc[nH]c7n6)c(=O)c5c4Cl)cn3)CC2)[C@@H]1N` [Example 42, 3-((1H-pyrrolo[2,3-b]pyridin-6-yl)methyl)-6-((5-((3S,4S)-4-amino-3-methyl-2-oxa-8-azaspiro[4.5]decan-8-yl)pyrazin-2-yl)thio)-5-chloroquinazolin-4(3H)-one] are under 3 nM and under 45 nM.

One may read the IC50 as the midpoint of a concentration-inhibition curve.
